In patent US11098041B2 (Merck Patent GmbH, priority 2014, dated 2021):

Assays:
[1] = molecular target: full-length human BTK (Homo sapiens (Human), UniProt Q06187); experiment: Assay A: microfluidic off-chip mobility shift assay against BTK enzyme; type: biochemical
Description: Assay A: Microfluidic Off-Chip Mobility Shift Assay Protocol for Potency Assessment Against BTK Enzyme
The protocol below describes microfluidic, off-chip mobility shift kinase assay to measure inherent potency of compounds against BTK enzyme.
5 uL of enzyme buffer and 7.5 uL of ATP/kinKDR peptide substrate mix were added to Matrix (#115304) 384-well, sterile, polypropylene plates (Thermo Fisher Scientific, Hudson, N.H.) with 125 nL of serially diluted compounds prepared in 100% DMSO, and incubated for 90 min. at 27° C. Following the incubation period, reactions were stopped by adding 60 uL stop buffer consisting of 100 mM HEPES, pH 7.5, 0.015% Brij-35 (30%), 0.277% Coating Reagent #3 (Caliper Life Sciences, Mountain View, Calif.), 5% DMSO. Stopped reactions were monitored at −2 PSI, −3000 V/−700 V in a LabChip 3000 plate reader from Caliper Life Sciences, a PerkinElmer Company (Hopkinton, Mass.), and the activity was measured by off-chip mobility shift assay measuring the charge/mass difference between substrate and product resulting from peptide phosphorilation. IC50 and efficacy were determined by plotting log [Inhibitor] vs. % Activity in GeneData Screener (Basel. Switzerland).

[2] = tested on: anti-IgM-induced expression of CD69 on CD19 positive cells (B cells) in human PBMCs; experiment: Assay C: PBMC IC50 assay (anti-IgM-induced CD69 expression); type: cell-based; settings: anti-IgM stimulation
Description: Btk is critical for mediating the signalling of B cell antigen receptor (BCR) after anti-IgM stimulation. Based on this principle, a functional cell-based assay was established to determine the potency of compounds at inhibiting anti-IgM-induced expression of CD69, a downstream BCR signaling event, in freshly isolated human peripheral blood mononuclear cells (PBMCs). In the assay, a 90 μl PBMC suspension containing 2.5×10^5 cells was pre-treated with 10 μl of test compound at various concentrations for an hour, and then incubated overnight (approximately 16-18 hours) with 5 μl 420 μg/ml affiniPure F(ab′)2 fragment goat anti-human IgM Fc fragment per well (Dianova, Cat. No.: 109-006-129). After the incubation, the cells were washed and immunostained with an APC-labeled mouse anti-human CD69 (BD Biosciences; clone: FN50), a PerCP-Cy5.5 labelled mouse anti-human CD19 (BD Biosciences; clone: SJ25C1) and a FITC-labelled mouse anti-human CD3 (BD Biosciences; clone: HIT3a), and fixed for flow cytometric analysis of CD69 expression on CD19 positive cells (B cells). The percentage of CD69 expressing CD19 positive cells was plotted against the concentrations of test compounds to obtain a concentration response curve, and calculate an IC50 value as a measure of the potency of test compounds in the assay.

[3] = molecular target: BTK C481S (His-TEV-hsBTK(328-659)(C481S)) (Homo sapiens (Human), UniProt Q06187, C481S); experiment: Assay B: microfluidic off-chip mobility shift assay against BTK C481S enzyme; type: biochemical; settings: BTK C481S mutant
Chain of BTK C481S (His-TEV-hsBTK(328-659)(C481S)) (Q06187 328-659 C481S): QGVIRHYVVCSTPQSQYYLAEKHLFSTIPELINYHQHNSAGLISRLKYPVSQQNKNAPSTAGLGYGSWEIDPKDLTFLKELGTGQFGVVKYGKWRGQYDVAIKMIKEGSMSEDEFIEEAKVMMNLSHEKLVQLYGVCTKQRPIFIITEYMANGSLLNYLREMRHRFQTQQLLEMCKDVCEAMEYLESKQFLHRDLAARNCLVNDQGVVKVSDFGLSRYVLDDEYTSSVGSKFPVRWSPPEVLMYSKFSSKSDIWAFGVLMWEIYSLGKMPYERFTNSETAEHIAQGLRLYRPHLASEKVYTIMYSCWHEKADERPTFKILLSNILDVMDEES
Description: The mechanics of the assay platform are described by the vendor (PerkinElmer, Hopkinton, Mass.) on their website at the following URL: http://caliperls.com.
5 uL of enzyme buffer and 7.5 uL of ATP/KinKDR peptide substrate mix were added to Matrix (#4315) 384-well, sterile, flat-bottom polypropylene plates (Thermo Fisher Scientific, Hudson, N.H.) with 125 nL of serially diluted compounds prepared in 100% DMSO, and incubated for 90 min. at 25° C. Following the incubation period, reactions were terminated by adding 65 uL quench buffer consisting of 100 mM HEPES, pH 7.5, 0.015% Brij-35 (30%), 0.277% Coating Reagent #3 (PerkinElmer, Mountain View, Calif.), 5% DMSO. Terminated reactions were monitored at −2 PSI, −3000 V/−700 Volts in a LabChip 3000 plate reader from Caliper Life Sciences, a PerkinElmer Company (Hopkinton, Mass.), and the activity was quantified by laser-induced fluorescence measuring the charge/mass difference between substrate and product resulting from peptide phosphorylation. IC50 and efficacy were determined by plotting log [Inhibitor] vs. % Activity in GeneData Screener (Basel, Switzerland).

Chain of full-length human BTK (Q06187 whole entry): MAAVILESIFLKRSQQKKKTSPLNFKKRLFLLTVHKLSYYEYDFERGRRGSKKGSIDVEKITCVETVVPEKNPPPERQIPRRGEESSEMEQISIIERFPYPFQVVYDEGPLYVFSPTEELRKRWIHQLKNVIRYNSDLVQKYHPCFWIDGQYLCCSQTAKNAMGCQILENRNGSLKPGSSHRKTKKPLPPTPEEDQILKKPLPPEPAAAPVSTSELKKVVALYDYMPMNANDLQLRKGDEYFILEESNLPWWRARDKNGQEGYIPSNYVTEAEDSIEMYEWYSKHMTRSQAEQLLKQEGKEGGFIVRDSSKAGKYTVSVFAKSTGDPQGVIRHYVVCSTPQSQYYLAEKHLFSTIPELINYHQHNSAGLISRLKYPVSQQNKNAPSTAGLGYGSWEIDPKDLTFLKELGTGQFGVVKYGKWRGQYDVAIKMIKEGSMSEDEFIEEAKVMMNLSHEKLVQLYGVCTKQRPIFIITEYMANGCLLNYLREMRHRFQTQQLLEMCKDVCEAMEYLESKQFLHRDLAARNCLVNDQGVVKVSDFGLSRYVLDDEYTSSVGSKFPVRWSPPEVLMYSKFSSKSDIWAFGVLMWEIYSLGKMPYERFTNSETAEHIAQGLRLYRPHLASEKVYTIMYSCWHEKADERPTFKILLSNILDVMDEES

| Structure (SMILES) | IC50 [1] [µM] | IC50 [3] [µM] | IC50 [2] [µM] |
| --- | --- | --- | --- |
| CC(C)(C)c1noc(C(=O)NCc2ccc(-c3ccnc4[nH]c(C5CC5)nc34)cc2F)n1 [Example 28, 3-tert-Butyl-[1,2,4]oxadiazole-5-carboxylic acid 4-(2-cyclopropyl-3H-imidazo[4,5-b]pyridin-7-yl)-2-fluoro-benzylamide] |  |  | 1 to 5 |
| Cn1cc(-c2nc3c(-c4ccc(CNC(=O)c5cc6c(s5)CCCC6)c(F)c4)ccnc3[nH]2)cn1 [Example 132, N-(2-fluoro-4-(2-(1-methyl-1H-pyrazol-4-yl)-3H-imidazo[4,5-b]pyridin-7-yl)benzyl)-4,5,6,7-tetrahydrobenzo[b]thiophene-2-carboxamide] |  |  | 0.1 to 1 |
| CC(C)(C)c1nc(C(=O)Nc2cccc(-c3ccnc4[nH]c(-c5ccc(N6CCC(F)(F)CC6)cc5)nc34)c2CO)no1 [Example 48, 5-tert-Butyl-N-(3-[2-[4-(4,4-difluoropiperidin-1-yl)phenyl]-3H-imidazo[4,5-b]pyridin-7-yl]-2-(hydroxymethyl)phenyl)-1,2,4-oxadiazole-3-carboxamide] | 0.1 to 1 | < 0.1 |  |
| Cn1cc(-c2nc3c(-c4cnc(CNC(=O)c5nnc(C(C)(C)C)o5)c(F)c4)ccnc3[nH]2)cn1 [Example 13, 5-tert-Butyl-[1,3,4]oxadiazole-2-carboxylic acid {3-fluoro-5-[2-(1-methyl-1H-pyrazol-4-yl)-3H-imidazo[4,5-b]pyridin-7-yl]-pyridin-2-ylmethyl}-amide] | 0.1 to 1 | < 0.1 |  |
| CC(C)(C)c1nc(C(=O)Nc2cccc(-c3ccnc4[nH]c(-c5ccc(C(=O)N6CCOCC6)cc5)nc34)c2CO)no1 [Example 45, 5-tert-Butyl-N-[2-(hydroxymethyl)-3-(2-[4-[(morpholin-4-yl)carbonyl]phenyl]-3H-imidazo[4,5-b]pyridin-7-yl)phenyl]-1,2,4-oxadiazole-3-carboxamide] | < 0.1 | < 0.1 |  |
| COc1ncccc1-c1nc2c(-c3ccc(CNC(=O)c4nc(C(C)(C)C)no4)c(F)c3)ccnc2[nH]1 [Example 151, 3-(tert-butyl)-N-(2-fluoro-4-(2-(2-methoxypyridin-3-yl)-3H-imidazo[4,5-b]pyridin-7-yl)benzyl)-1,2,4-oxadiazole-5-carboxamide] | < 0.1 | < 0.1 |  |
| COc1cccc(-c2nc3c(-c4cc(F)c(CNC(=O)c5noc(C(C)(C)C)n5)cc4C)ccnc3[nH]2)c1 [Example 78, 5-tert-Butyl-N-([2-fluoro-4-[2-(3-methoxyphenyl)-3H-imidazo[4,5-b]pyridin-7-yl]-5-methylphenyl]methyl)-1,2,4-oxadiazole-3-carboxamide] | < 0.1 | < 0.1 |  |
| Cn1cc(-c2nc3c(-c4ccc(CNC(=O)C5CCC(C(C)(C)C)CC5)c(F)c4)ccnc3[nH]2)cn1 (centres unmarked) [Example 15, 4-tert-Butyl-cyclohexanecarboxylic acid 2-fluoro-4-[2-(1-methyl-1H-pyrazol-4-yl)-3H-imidazo[4,5-b]pyridin-7-yl]-benzylamide] |  |  | 1 to 5 |
| Cn1cc(-c2nc3c(-c4ccc(CO)c(F)c4)ccnc3[nH]2)cn1 [Example 32, {2-Fluoro-4-[2-(1-methyl-1H-pyrazol-4-yl)-3H-imidazo[4,5-b]pyridin-7-yl]-phenyl}-methanol] | 1 to 5 | 0.1 to 1 |  |
| CC(C)(C)c1noc(C(=O)NCc2ccc(-c3ccnc4[nH]c(-c5ccncc5)nc34)cc2F)n1 [Example 150, 3-(tert-butyl)-N-(2-fluoro-4-(2-(pyridin-4-yl)-3H-imidazo[4,5-b]pyridin-7-yl)benzyl)-1,2,4-oxadiazole-5-carboxamide] | < 0.1 | < 0.1 |  |
| Cn1cc(-c2nc3c(-c4ccc(CNC(=O)c5nc(C6(C)CC6)no5)c(F)c4)ccnc3[nH]2)cn1 [Example 165, N-([2-fluoro-4-[2-(1-methyl-1H-pyrazol-4-yl)-3H-imidazo[4,5-b]pyridin-7-yl]phenyl]methyl)-3-(1-methylcyclopropyl)-1,2,4-oxadiazole-5-carboxamide] |  |  | 0.1 to 1 |
| CC(C)(C)c1noc(C(=O)NCc2ccc(-c3ccnc4[nH]c(-c5cccnc5)nc34)cc2F)n1 [Example 149, 3-(tert-butyl)-N-(2-fluoro-4-(2-(pyridin-3-yl)-3H-imidazo[4,5-b]pyridin-7-yl)benzyl)-1,2,4-oxadiazole-5-carboxamide] | < 0.1 | < 0.1 |  |
| Cn1cc(-c2nc3c(-c4ccc5c(c4)CN(C(=O)c4nc(C(C)(C)C)no4)CC5)ccnc3[nH]2)cn1 [Example 155, (3-tert-Butyl-[1,2,4]oxadiazol-5-yl)-{7-[2-(1-methyl-1H-pyrazol-4-yl)-3H-imidazo[4,5-b]pyridin-7-yl]-3,4-dihydro-1H-isoquinolin-2-yl}-methanone] | > 5 | > 5 |  |
| CC(C)(C)c1cc(C(=O)NCc2ccc(-c3ccnc4[nH]c(C5CCNC(=O)C5)nc34)cc2F)no1 (centres unmarked) [Example 29, 5-tert-Butyl-isoxazole-3-carboxylic acid 2-fluoro-4-[2-(2-oxo-piperidin-4-yl)-3H-imidazo[4,5-b]pyridin-7-yl]-benzylamide] | 1 to 5 | 0.1 to 1 |  |

Second part, led by results:

| IC50 [1] [µM] | IC50 [3] [µM] | Structure (SMILES) | IC50 [2] [µM] |
| --- | --- | --- | --- |
| < 0.1 |  | CN1CCN(Cc2ccc(-c3nc4c(-c5ccc(CNC(=O)c6noc(C(C)(C)C)n6)c(F)c5)ccnc4[nH]3)nc2)CC1 [Example 69, 5-tert-Butyl-N-[[2-fluoro-4-(2-[5-[(4-methylpiperazin-1-yl)methyl]pyridin-2-yl]-3H-imidazo[4,5-b]pyridin-7-yl)phenyl]methyl]-1,2,4-oxadiazole-3-carboxamide] | < 0.1 |
| 1 to 5 | 1 to 5 | Cc1cc(-c2ccnc3[nH]c(-c4cnn(C)c4)nc23)ccc1CNC(=O)C(N)=O [Example 101, N-{2-Methyl-4-[2-(1-methyl-1H-pyrazol-4-yl)-3H-imidazo[4,5-b]pyridin-7-yl]-benzyl}-oxalamide] |  |
| 1 to 5 | > 5 | Cc1c(CNC(=O)c2noc(C(C)(C)C)n2)cccc1-c1ccnc2[nH]c(-c3cnn(C)c3)nc12 [Example 88, 5-tert-Butyl-N-([2-methyl-3-[2-(1-methyl-1H-pyrazol-4-yl)-3H-imidazo[4,5-b]pyridin-7-yl]phenyl]methyl)-1,2,4-oxadiazole-3-carboxamide] |  |
| 1 to 5 | < 0.1 | Cn1cc(-c2nc3c(-c4cccc(NC(=O)c5noc(C6CC6)n5)c4CO)ccnc3[nH]2)cn1 [Example 44, 5-Cyclopropyl-N-[2-(hydroxymethyl)-3-[2-(1-methyl-1H-pyrazol-4-yl)-3H-imidazo[4,5-b]pyridin-7-yl]phenyl]-1,2,4-oxadiazole-3-carboxamide] |  |
| < 0.1 | < 0.1 | Cn1ccc(-c2nc3c(-c4ccc(CNC(=O)c5nnc(C(C)(C)C)o5)c(F)c4)ccnc3[nH]2)cc1=O [Example 141, 5-tert-Butyl-[1,3,4]oxadiazole-2-carboxylic acid 2-fluoro-4-[2-(1-methyl-2-oxo-1,2-dihydro-pyridin-4-yl)-3H-imidazo[4,5-b]pyridin-7-yl]-benzylamide] |  |
| < 0.1 | < 0.1 | CC(C)(C)c1ccc(C(=O)NCc2ccc(-c3ccnc4[nH]c(C5CC5)nc34)cc2F)cc1 [Example 26, 4-tert-Butyl-N-[4-(2-cyclopropyl-3H-imidazo[4,5-b]pyridin-7-yl)-2-fluoro-benzyl]-benzamide] |  |
| 1 to 5 | 1 to 5 | Cn1cc(-c2nc3c(-c4ccc(C(C)(C)NC(=O)C(N)=O)c(F)c4)ccnc3[nH]2)cn1 [Example 102, N-(1-{2-Fluoro-4-[2-(1-methyl-1H-pyrazol-4-yl)-3H-imidazo[4,5-b]pyridin-7-yl]-phenyl}-1-methyl-ethyl)-oxalamide] |  |
